Series [1] can be described thus: Solubility of moxifloxacin HCl in the presence of sodium chloride. Type of series: physicochemical. To be noted: for Solubility moxifloxacin HCl: 5° C.; for solubility thermodynamic: sodium chloride solution, 5 °C, thermodynamic from solid. The method, then: For a dosage range of from 100 mg to 1000 mg at active compound concentrations of from 0.04% to 0.4% (w/v) of moxifloxacin hydrochloride, it is thus possible to adjust the osmotic pressure to physiological conditions by adding from 0.4% to 0.9% of sodium chloride. […] This ensures that, even on short-term cold storage, there is no precipitation of the active compound as a result of exceeding the saturation solubilities. [table]

Series [2] can be described thus: physchem. The note with it: water (aqueous solution without NaCl).

Counter-ions that a name gives are not always drawn.

The values below come from US6548079B1, “Moxifloxacin formulation containing common salt” (Bayer Aktiengesellschaft, priority 1999, dated 2003).

The solubility (thermodynamic) is solubility found after equilibrating the solid with the medium.

Regarding `COc1c(N2C[C@@H]3CCCN[C@@H]3C2)c(F)cc2c(=O)c(C(=O)O)cn(C3CC3)c12` [moxifloxacin HCl, 1-cyclopropyl-7-([S,S]-2,8-diazabicyclo[4.3.0]non-8-yl)-6-fluoro-1,4-dihydro-8-methoxy-4-oxo-3-quinolonecarboxylic acid], the “Solubility moxifloxacin HCl” value in series [1] (NaCl 0.7 % (w/v)) and in series [1] (NaCl 0.8 % (w/v)) was 0.2 % (w/v) in each case. Besides, the thermodynamic solubility in series [1] (saline or isotonic, NaCl 0.1 % (w/v)) came to 11000 µg/mL; in series [1] (saline or isotonic, NaCl 0.2 % (w/v)) it was 7000 µg/mL; in series [1] (saline or isotonic, NaCl 0.3 % (w/v)), 5000 µg/mL; in series [1] (saline or isotonic, NaCl 0.4 % (w/v)), 4000 µg/mL; in series [1] (saline or isotonic, NaCl 0.5 % (w/v)), 3000 µg/mL; in series [1] (saline or isotonic, NaCl 0.6 % (w/v)), 2000 µg/mL. The thermodynamic solubility in series [1] (saline or isotonic, NaCl 0.9 % (w/v)) is 1000 µg/mL; in series [1] (water, NaCl 0 % (w/v)), 18000 µg/mL; in series [2], about 24000 µg/mL.
